Data: US20260224597A1, “METHODS FOR ACTIVATING IMMUNE CELLS TO KILL BACTERIA” (The Texas A&M University System, priority 2023, published 2026)
Read-outs that look alike come from different tables or passages of the source.

Legend:
Mtb [1] = assay: microbe, parasite or virus in culture; format: cell-based, Mycobacterium tuberculosis
Mtb [2] = assay: Transmission electron microscopy of Mtb cell envelope thickness; format: cell-based, Mycobacterium tuberculosis; details: TEM, 1 μg/ml INH and/or 5 μM gallein for 14 days
IP6K1 = IP6K1 (Homo sapiens, UniProt Q92551); details: Liao 2021; read-out: IC50 as to IP6K1; cited from earlier work
IP6K1, sequence (Q92551 whole entry): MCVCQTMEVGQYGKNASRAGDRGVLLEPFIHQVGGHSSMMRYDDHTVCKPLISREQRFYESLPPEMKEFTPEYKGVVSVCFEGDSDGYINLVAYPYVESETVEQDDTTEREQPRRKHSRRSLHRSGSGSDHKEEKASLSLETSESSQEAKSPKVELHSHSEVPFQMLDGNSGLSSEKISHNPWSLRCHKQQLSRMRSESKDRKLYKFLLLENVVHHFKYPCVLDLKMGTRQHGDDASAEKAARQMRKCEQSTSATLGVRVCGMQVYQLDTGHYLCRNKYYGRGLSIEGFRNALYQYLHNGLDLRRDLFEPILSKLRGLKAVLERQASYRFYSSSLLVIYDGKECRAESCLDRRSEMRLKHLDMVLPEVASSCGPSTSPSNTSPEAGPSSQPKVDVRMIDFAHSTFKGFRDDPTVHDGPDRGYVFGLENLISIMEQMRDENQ

L. monocytogenes = format: cell-based, Listeria monocytogenes
Mtb [3] = test system: Mtb
L. pneumophila = format: cell-based, Legionella pneumophila
Mtb [4] = assay: microbe, parasite or virus in culture; details: Mycobacterium tuberculosis, Macrophage, in Homo sapiens, 48 h, read-out: reduction of the viability of Mtb
PPK2 = details: in Pseudomonas aeruginosa, Neville et al., 2021; cited from earlier work
P. aeruginosa = details: in Caenorhabditis elegans, Neville et al., 2021; cited from earlier work
PPK1 = PPK1 (Pseudomonas aeruginosa, UniProt P0DP44); details: in Pseudomonas aeruginosa, Neville et al., 2021; cited from earlier work
PPK1, sequence (P0DP44 whole entry): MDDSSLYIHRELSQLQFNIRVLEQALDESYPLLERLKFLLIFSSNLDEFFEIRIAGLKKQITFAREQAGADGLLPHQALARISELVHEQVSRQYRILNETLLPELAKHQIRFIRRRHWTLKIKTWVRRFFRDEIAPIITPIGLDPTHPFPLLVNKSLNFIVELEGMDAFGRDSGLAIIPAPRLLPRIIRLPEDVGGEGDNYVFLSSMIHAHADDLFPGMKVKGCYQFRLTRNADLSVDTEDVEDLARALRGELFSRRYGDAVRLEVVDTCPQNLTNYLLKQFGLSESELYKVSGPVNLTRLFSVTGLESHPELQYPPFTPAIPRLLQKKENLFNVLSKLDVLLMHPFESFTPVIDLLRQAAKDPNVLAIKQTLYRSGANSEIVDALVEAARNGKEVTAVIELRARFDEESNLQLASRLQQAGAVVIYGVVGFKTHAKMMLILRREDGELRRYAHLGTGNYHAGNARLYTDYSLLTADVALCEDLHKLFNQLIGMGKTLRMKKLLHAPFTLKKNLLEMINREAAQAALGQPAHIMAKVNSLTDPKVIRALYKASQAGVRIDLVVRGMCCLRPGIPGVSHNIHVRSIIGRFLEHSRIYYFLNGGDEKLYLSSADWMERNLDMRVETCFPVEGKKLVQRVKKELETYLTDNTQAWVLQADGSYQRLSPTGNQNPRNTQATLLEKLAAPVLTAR

SMILES | Mtb cell envelope thickness (Mtb [2]) | viability of ingested L. monocytogenes compared to control (L. monocytogenes) | number of ingested Mtb compared to control (Mtb [3]) | number of viable Mtb compared to control (Mtb [3]) | viability of ingested L. pneumophila compared to control (L. pneumophila) | metabolic activity of macrophages infected with Mtb (human macrophages) | also measured
NNC(=O)c1ccncc1 [INH, Isonicotinic acid hydrazide] | increased | – | – | – | – | – | Mtb growth (Mtb [1]): partial but not complete reduction
Cn1sc(=O)n(Cc2ccccc2)c1=O [LI-1753] | – | – | – | – | – | – | IC50 (IP6K1): 2.15 µM
O=[N+]([O-])c1ccc(CNc2nc(NCc3cccc(C(F)(F)F)c3)nc3[nH]cnc23)cc1 [TNP, N6-[(4-nitrophenyl)methyl]-N2-[[3-(trifluoromethyl)phenyl]methyl]-9H-Purine-2,6-diamine] | – | reduced the viability | increased | reduced the number of viable Mtb | reduced the viability | did not significantly change | inhibition at 1 µM (Mtb [4]): ~50%; metabolic activity of macrophages (human macrophages): reduced the metabolic activity
O=C1OC2(c3ccccc31)c1ccc(O)c(O)c1Oc1c2ccc(O)c1O [gallein, 3′,4′,5′,6′-Tetrahydroxyspiro[isobenzofuran-1(3H),9′-(9H)xanthen]-3-one] | did not significantly affect | reduced the viability | increased | reduced the number of viable Mtb | reduced the viability | did not significantly change | ingested Mtb viability compared to control (Mtb [3]): decreased ingested Mtb viability; viability of ingested Mtb compared to control (Mtb [3]): reduced the viability; PPK2 enzyme activity (PPK2): inhibits; virulence of P. aeruginosa (P. aeruginosa): attenuates the virulence; Mtb growth compared to control (Mtb [1]): slightly slowed growth; inhibition at 50 µM (Mtb [1]; Mycobacterium tuberculosis, 336 h, read-out: inhibition of Mtb growth): ~80%; PPK1 enzyme activity (PPK1): inhibits; metabolic activity of macrophages (human macrophages; human): None of the concentrations of MRS2279 and gallein significantly altered
